Results from publication PMC8286840, “Identifying SARS-CoV-2 antiviral compounds by screening for small molecule inhibitors of Nsp3 papain-like protease” (Biochemical Journal, 2021).
Where a name gives a salt, the structure may show the parent alone. Read-outs that look alike come from different tables or passages of the source.

Tests used:
[1] = target: T1, SARS-CoV-2 PLpro (nsp3 1564–1878) (Severe acute respiratory syndrome coronavirus 2, UniProt P0DTD1); experiment: biochemical; parameters: FRET-quenched peptide (Pro3) cleavage by PLpro, 10 min pre-incubation, slope over 20 min, normalised to no-compound control; conditions: low concentration screen, read-out: % of control remaining
[2] = target: T1, SARS-CoV-2 PLpro (nsp3 1564–1878); experiment: biochemical; parameters: FRET-quenched peptide (Pro3) cleavage by PLpro, 10 min pre-incubation, slope over 20 min, normalised to no-compound control; conditions: high concentration screen, read-out: % of control remaining

In the case of `CC(=O)Nc1ccc(OC[C@](C)(O)C(=O)Nc2ccc([N+](=O)[O-])c(C(F)(F)F)c2)cc1` [Andarine (GTX-007)], the remaining activity at 1.25 µM ([1]; Well no.=5053) is reported as 102% and the remaining activity at 3.75 µM ([2]; Well no.=5053) is reported as 104%.
In the case of `C=C1CC[C@@H]2[C@](C)(CO)[C@H](O)CC[C@@]2(C)[C@@H]1C/C=C1/C(=O)OC[C@H]1O` [Andrographolide], the remaining activity at 1.25 µM ([1]; Well no.=3435) is reported as 93.4% and the remaining activity at 3.75 µM ([2]; Well no.=3435) is reported as 96.9%.
With `C[C@]12CC[C@@H](O)C[C@@H]1CC[C@@H]1[C@@H]2CC[C@]2(C)C(=O)CC[C@@H]12` [Androsterone] the remaining activity at 1.25 µM ([1]; Well no.=298) was 98.5%, the remaining activity at 1.25 µM ([1]; Well no.=6435) was 99.9% and the remaining activity at 3.75 µM ([2]; Well no.=298) was 99.3%. The remaining activity at 3.75 µM ([2]; Well no.=6435) was 97.6%.
`COc1ccc(-c2cc(=S)ss2)cc1` [Anethole trithione] was tested, and the remaining activity at 1.25 µM ([1]; Well no.=4132) was 93.9% and the remaining activity at 3.75 µM ([2]; Well no.=4132) was 96.6%.
`C/C=C/c1ccc(OC)cc1` [Anethole, trans-] showed a remaining activity at 1.25 µM ([1]; Well no.=1916) of 97.9% and a remaining activity at 3.75 µM ([2]; Well no.=1916) of 95.1%.
Compound `COc1ccc(-c2cc(=S)ss2)cc1` [Anethole-trithione] has a remaining activity at 1.25 µM ([1]; Well no.=1856) of 91.9% and a remaining activity at 3.75 µM ([2]; Well no.=1856) of 92.4%.
`CC[C@H](C)[C@H](NC(=O)[C@H](Cc1ccc(O)cc1)NC(=O)[C@@H](NC(=O)[C@H](CCCNC(=N)N)NC(=O)[C@@H](N)CC(=O)O)C(C)C)C(=O)N[C@@H](Cc1c[nH]cn1)C(=O)N1CCC[C@H]1C(=O)O` [Angiotensin (1-7)] showed a remaining activity at 1.25 µM ([1]; Well no.=6176) of 96.1%, a remaining activity at 1.25 µM ([1]; Well no.=8368) of 99.7% and a remaining activity at 3.75 µM ([2]; Well no.=6176) of 96.5%. The remaining activity at 3.75 µM ([2]; Well no.=8368) was 96.1%.
`CC[C@H](C)[C@H](NC(=O)[C@H](Cc1ccc(O)cc1)NC(=O)[C@@H](NC(=O)[C@H](CCCNC(=N)N)NC(=O)[C@@H](N)CC(=O)O)C(C)C)C(=O)N[C@@H](Cc1cnc[nH]1)C(=O)N1CCC[C@H]1C(=O)N[C@@H](Cc1ccccc1)C(=O)O` [Angiotensin II human] was tested, and the remaining activity at 1.25 µM ([1]; Well no.=8345) was 93.9% and the remaining activity at 3.75 µM ([2]; Well no.=8345) was 97.1%.
Compound `COc1ccc(C(=O)N2CCCC2=O)cc1` [Aniracetam] has a remaining activity at 1.25 µM ([1]; Well no.=156) of 102%, a remaining activity at 1.25 µM ([1]; Well no.=1889) of 95.1% and a remaining activity at 3.75 µM ([2]; Well no.=156) of 108%. It also gave a remaining activity at 3.75 µM ([2]; Well no.=1889) of 95.2%.
Compound `CN1[C@H]2C[C@H](OC(=O)[C@H](CO)c3ccccc3)C[C@@H]1[C@@H](O)C2` [Anisodamine] has a remaining activity at 1.25 µM ([1]; Well no.=3474) of 96.3% and a remaining activity at 3.75 µM ([2]; Well no.=3474) of 92.3%.
`Cn1cncc1C[C@H](NC(=O)CCN)C(=O)O` [Anserine] gave a remaining activity at 1.25 µM ([1]; Well no.=6581) of 102%, a remaining activity at 1.25 µM ([1]; Well no.=7890) of 91.9% and a remaining activity at 3.75 µM ([2]; Well no.=6581) of 103%. The remaining activity at 3.75 µM ([2]; Well no.=7890) was 95.1%.
`c1ccc(CN(CC2=NCCN2)c2ccccc2)cc1` [Antazoline (hydrochloride)] gave a remaining activity at 1.25 µM ([1]; Well no.=7425) of 112% and a remaining activity at 3.75 µM ([2]; Well no.=7425) of 102%.
With `CNc1ccc2oc(C[C@H]3O[C@@]4(CC[C@H]3C)O[C@H]([C@H](C)C(=O)c3ccc[nH]3)[C@H](C)C[C@H]4C)nc2c1C(=O)O` [Antibiotic A-23187] the remaining activity at 1.25 µM ([1]; Well no.=3079) was 103% and the remaining activity at 3.75 µM ([2]; Well no.=3079) was 104%.
In the case of `CCCCCC[C@H]1C(=O)O[C@H](C)[C@H](NC(=O)c2cccc(NC=O)c2O)C(=O)O[C@@H](C)[C@@H]1OC(=O)CC(C)C` [Antimycin A1], the remaining activity at 1.25 µM ([1]; Well no.=3158) is reported as 98.9% and the remaining activity at 3.75 µM ([2]; Well no.=3158) is reported as 98.6%.
In the case of `Cc1cc(=O)n(-c2ccccc2)n1C` [Antipyrine], the remaining activity at 1.25 µM ([1]; Well no.=5024) is reported as 96.5% and the remaining activity at 3.75 µM ([2]; Well no.=5024) is reported as 100%.
`c1ccc(CN(Cc2ncc[nH]2)c2ccccc2)cc1` [Antozoline hydrochloride] showed a remaining activity at 1.25 µM ([1]; Well no.=108) of 101% and a remaining activity at 3.75 µM ([2]; Well no.=108) of 103%.
`N#CC1(c2ccc(NC(=O)c3cccnc3NCc3ccncc3)cc2)CCCC1` [Apatinib (YN968D1)] gave a remaining activity at 1.25 µM ([1]; Well no.=5156) of 101% and a remaining activity at 3.75 µM ([2]; Well no.=5156) of 102%.
For `C[C@@]1(CO)[C@H](O)CC[C@@]2(C)[C@H]1CC[C@H]1C[C@@H]3C[C@@]12CC[C@]3(O)CO` [Aphidicolin], the remaining activity at 1.25 µM ([1]; Well no.=3476) was 104% and the remaining activity at 3.75 µM ([2]; Well no.=3476) was 101%.
For `O=c1cc(-c2ccc(O)cc2)oc2cc(O[C@@H]3O[C@H](CO)[C@@H](O)[C@H](O)[C@H]3O)cc(O)c12` [Apigenin-7-glucoside], the remaining activity at 1.25 µM ([1]; Well no.=3635) was 97.8% and the remaining activity at 3.75 µM ([2]; Well no.=3635) was 93.3%.
`O=c1cc(-c2ccc(O)cc2)oc2cc(O)cc(O)c12` [Apigenin] gave a remaining activity at 1.25 µM ([1]; Well no.=299) of 93.8%, a remaining activity at 1.25 µM ([1]; Well no.=3234) of 99.1% and a remaining activity at 1.25 µM ([1]; Well no.=3909) of 101%. The remaining activity at 3.75 µM ([2]; Well no.=299) was 93.2%, the remaining activity at 3.75 µM ([2]; Well no.=3234) was 94.9% and the remaining activity at 3.75 µM ([2]; Well no.=3909) was 96.7%.
`COc1ccc(-n2nc(C(N)=O)c3c2C(=O)N(c2ccc(N4CCCCC4=O)cc2)CC3)cc1` [Apixaban] was tested, and the remaining activity at 1.25 µM ([1]; Well no.=5331) was 99.7% and the remaining activity at 3.75 µM ([2]; Well no.=5331) was 100%.
With `CN1CCc2cccc3c2[C@H]1Cc1ccc(O)c(O)c1-3` [Apomorphine hydrochloride hemihydrate] the remaining activity at 1.25 µM ([1]; Well no.=349) was 99.6% and the remaining activity at 3.75 µM ([2]; Well no.=349) was 103%.
`O=C1C(=O)N(Cc2ccc(Cl)c(Cl)c2)c2ccccc21` [Apoptosis Activator 2] gave a remaining activity at 1.25 µM ([1]; Well no.=5259) of 98.8% and a remaining activity at 3.75 µM ([2]; Well no.=5259) of 95.7%.
For `COc1ccc(-c2nc(-c3cc(C(F)(F)F)cc(C(F)(F)F)c3)n(Cc3ccc(C(N)=O)cc3)c2-c2ccc(OC)cc2)cc1` [Apoptozole], the remaining activity at 1.25 µM ([1]; Well no.=6596) was 102%, the remaining activity at 1.25 µM ([1]; Well no.=8536) was 98.3% and the remaining activity at 3.75 µM ([2]; Well no.=6596) was 92.9%. For the same compound, the remaining activity at 3.75 µM ([2]; Well no.=8536) was 90.1%.
Work on `CN[C@@H]1[C@@H](O[C@H]2O[C@H](CO)[C@@H](N)[C@H](O)[C@H]2O)O[C@H]2C[C@@H](N)[C@@H](O[C@H]3[C@H](O)[C@@H](O)[C@H](N)C[C@@H]3N)O[C@@H]2[C@@H]1O` [Apramycin] yielded a remaining activity at 1.25 µM ([1]; Well no.=2127) of 99.8% and a remaining activity at 3.75 µM ([2]; Well no.=2127) of 102%.
For `CCOc1cc([C@@H](CS(C)(=O)=O)N2C(=O)c3cccc(NC(C)=O)c3C2=O)ccc1OC` [Apremilast (CC-10004)], the remaining activity at 1.25 µM ([1]; Well no.=5218) was 97.8% and the remaining activity at 3.75 µM ([2]; Well no.=5218) was 99.8%.
Work on `C[C@@H](O[C@H]1OCCN(Cc2n[nH]c(=O)[nH]2)[C@H]1c1ccc(F)cc1)c1cc(C(F)(F)F)cc(C(F)(F)F)c1` [Aprepitant] yielded a remaining activity at 1.25 µM ([1]; Well no.=2244) of 98.3%, a remaining activity at 1.25 µM ([1]; Well no.=6703) of 102% and a remaining activity at 3.75 µM ([2]; Well no.=2244) of 99.9%. The remaining activity at 3.75 µM ([2]; Well no.=6703) was 97.7%.
For `CCCCC/C=C\C/C=C\C/C=C\C/C=C\CCCC(N)=O` [Arachidonamide], the remaining activity at 1.25 µM ([1]; Well no.=4336) was 108% and the remaining activity at 3.75 µM ([2]; Well no.=4336) was 104%.
